# Results taken from US10435399B2, “HDAC6 inhibitory heterocyclic compound” (TAKEDA PHARMACEUTICAL COMPANY LIMITED, priority 2017, dated 2019).
# Molecular target: T1, HDAC6 enzyme (Homo sapiens, UniProt Q9UBN7)
# T1 construct: transducing full length HDAC6 gene into Sf-9 insect cells; GST; purchased SignalChem; host or cells: Sf-9 insect cells
# T1 sequence (Q9UBN7 1-1215): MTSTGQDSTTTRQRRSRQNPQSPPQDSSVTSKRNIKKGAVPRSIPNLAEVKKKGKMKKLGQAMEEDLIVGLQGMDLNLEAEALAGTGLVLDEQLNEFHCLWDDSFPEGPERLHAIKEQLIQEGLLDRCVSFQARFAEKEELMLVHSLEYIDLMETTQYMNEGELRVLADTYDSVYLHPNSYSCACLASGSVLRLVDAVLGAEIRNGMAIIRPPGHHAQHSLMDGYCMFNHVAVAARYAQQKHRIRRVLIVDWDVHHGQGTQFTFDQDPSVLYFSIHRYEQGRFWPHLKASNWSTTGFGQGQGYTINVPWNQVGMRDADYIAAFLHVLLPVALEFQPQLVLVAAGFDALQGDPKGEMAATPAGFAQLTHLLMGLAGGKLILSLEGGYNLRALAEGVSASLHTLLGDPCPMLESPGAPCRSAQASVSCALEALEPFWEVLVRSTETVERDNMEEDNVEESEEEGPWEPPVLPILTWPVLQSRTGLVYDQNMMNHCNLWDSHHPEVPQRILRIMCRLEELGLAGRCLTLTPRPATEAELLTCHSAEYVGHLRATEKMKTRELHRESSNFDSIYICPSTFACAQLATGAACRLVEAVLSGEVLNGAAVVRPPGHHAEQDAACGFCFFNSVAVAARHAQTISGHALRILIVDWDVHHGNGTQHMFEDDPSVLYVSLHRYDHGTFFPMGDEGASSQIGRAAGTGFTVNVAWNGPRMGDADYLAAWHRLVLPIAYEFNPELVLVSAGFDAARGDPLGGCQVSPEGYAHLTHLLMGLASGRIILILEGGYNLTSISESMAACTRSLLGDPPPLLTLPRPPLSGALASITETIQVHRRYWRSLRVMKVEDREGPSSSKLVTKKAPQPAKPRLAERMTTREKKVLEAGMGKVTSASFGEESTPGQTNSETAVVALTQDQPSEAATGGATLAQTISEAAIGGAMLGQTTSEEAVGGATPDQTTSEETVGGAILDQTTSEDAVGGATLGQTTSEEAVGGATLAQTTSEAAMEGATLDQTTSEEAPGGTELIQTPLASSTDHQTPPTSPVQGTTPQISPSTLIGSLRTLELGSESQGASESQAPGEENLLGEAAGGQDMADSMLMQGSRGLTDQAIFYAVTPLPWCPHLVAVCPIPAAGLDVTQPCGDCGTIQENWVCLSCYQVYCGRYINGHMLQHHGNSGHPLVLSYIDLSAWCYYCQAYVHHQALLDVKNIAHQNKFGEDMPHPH
# Experiment: HDAC6 enzyme inhibitory activity (HDAC-Glo I/II Assay kit)
# Assay type: biochemical
# Details: 10 μM; wells without enzyme = 100% inhibition; read-out: HDAC6 inhibitory rate (%) (10 μM)
# Summary of the method: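 Sf-9-derived GST-purified full-length HDAC6 + cpd, 60 min RT, 24 mM Tris pH 7.5/0.6 mM glutathione/0.01% Tween-20; add HDAC-Glo substrate-developer, 20 min RT; luminescence. No-enzyme = 100% inhibition.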
row,SMILES,inhibition at 10 µM [%]
1,"CC(C)(C)OC(=O)N[C@H]1COCC[C@H]1N1Cc2ccc(-c3nnc(C(F)F)o3)cc2C1=O [Example 413, tert-butyl ((3R,4R)-4-(6-(5-(difluoro-methyl)-1,3,4-oxadiazol-2-yl)-1-oxo-1,3-dihydro-2H-isoindol-2-yl)tetrahydro-2H-pyran-3-yl) carbamate]",98
2,"N[C@H]1COCC[C@H]1N1Cc2ccc(-c3nnc(C(F)F)o3)cc2C1=O [Example 414, 2-((3R,4R)-3-aminotetra-hydro-2H-pyran-4-yl)-6-(5-(difluoro-methyl)-1,3,4-oxadiazol-2-yl) isoindolin-1-one]",87
3,"O=C1c2cc(-c3nnc(C(F)F)o3)ccc2CN1[C@@H]1CCOC[C@@H]1NCC(F)(F)F [Example 415, 6-(5-(difluoro-methyl)-1,3,4-oxadiazol-2-yl)-2-((3R,4R)-3-((2,2,2-trifluoro-ethyl)amino)tetrahydro-2H-pyran-4-yl) isoindolin-1-one]",101
4,"O=C1c2cc(-c3nnc(C(F)F)o3)ccc2CN1[C@@H]1CCOC[C@@H]1NCC(F)(F)C(F)(F)F [Example 416, 6-(5-(difluoro-methyl)-1,3,4-oxadiazol-2-yl)-2-((3R,4R)-3-((2,2,3,3,3-pentafluoro-propyl)amino)tetrahydro-2H-pyran-4-yl) isoindolin-1-one]",101
5,"O=C1c2cc(-c3nnc(C(F)F)o3)ccc2CN1[C@@H]1CCOC[C@@H]1NC(=O)C(F)(F)C(F)(F)F [Example 418, N-((3R,4R)-4-(6-(5-(difluoro-methyl)-1,3,4-oxadiazol-2-yl)-1-oxo-1,3-dihydro-2H-isoindol-2-yl)tetrahydro-2H-pyran-3-yl)-2,2,3,3,3-pentafluoro-propanamide]",99
6,"Cn1ccc(CN2Cc3ncc(-c4nnc(C(F)F)o4)cc3C2=O)n1 [Example 419, 3-(5-(difluoro-methyl)-1,3,4-oxadiazol-2-yl)-6-((1-methyl-1H-pyrazol-3-yl)methyl)-6,7-dihydro-5H-pyrrolo[3,4-b] pyridin-5-one]",99
7,"O=C1c2cc(-c3nnc(C(F)F)o3)cc(F)c2CN1C[C@H]1CC(F)(F)CN1S(=O)(=O)c1cccc(F)c1 [Example 420, 2-(((2R)-4,4-difluoro-1-((3-fluoro-phenyl)sulfonyl)pyrrolidin-2-yl)methyl)-6-(5-(difluoro-methyl)-1,3,4-oxadiazol-2-yl)-4-fluoroiso-indolin-1-one]",99
8,"O=C1c2cc(-c3nnc(C(F)F)o3)cc(F)c2CN1C[C@H]1CC(F)(F)CN1S(=O)(=O)CC(F)(F)F [Example 421, 6-(5-(difluoro-methyl)-1,3,4-oxadiazol-2-yl)-2-(((2R)-4,4-difluoro-1-((2,2,2-trifluoro-ethyl)sulfonyl)pyrrolidin-2-yl)methyl)-4-fluoroiso-indolin-1-one]",98
9,"O=C1c2cc(-c3nnc(C(F)F)o3)cc(F)c2CN1C[C@H]1CC(F)(F)CN1C(=O)C1CC1 [Example 422, 2-(((2R)-1-(cyclopropyl-carbonyl)-4,4-difluoro-pyrrolidin-2-yl)methyl)-6-(5-(difluoro-methyl)-1,3,4-oxadiazol-2-yl)-4-fluoroiso-indolin-1-one]",98
10,"Cn1cc(CN2Cc3ncc(-c4nnc(C(F)F)o4)cc3C2=O)cn1 [Example 423, 3-(5-(difluoro-methyl)-1,3,4-oxadiazol-2-yl)-6-((1-methyl-1H-pyrazol-4-yl)methyl)-6,7-dihydro-5H-pyrrolo[3,4-b] pyridin-5-one]",99
11,"O=C1c2cc(-c3nnc(C(F)F)o3)cc(F)c2CN1C[C@H]1CCCN1S(=O)(=O)c1cccc(F)c1 [Example 427, 6-(5-(difluoro-methyl)-1,3,4-oxadiazol-2-yl)-4-fluoro-2-(((2R)-1-((3-fluorophenyl)sulfonyl)pyrrolidin-2-yl)methyl) isoindolin-1-one]",100
12,"O=C1c2cc(-c3nnc(C(F)F)o3)cnc2CN1Cc1cccc(Br)c1 [Example 428, 6-(3-bromo-benzyl)-3-(5-(difluoro-methyl)-1,3,4-oxadiazol-2-yl)-6,7-dihydro-5H-pyrrolo [3,4-b] pyridin-5-one]",99
13,"O=C1c2cc(-c3nnc(C(F)F)o3)cc(F)c2CN1C[C@H]1CC(F)(F)CN1C(=O)c1ccccc1 [Example 429, 2-(((2R)-1-benzoyl-4,4-difluoro-pyrrolidin-2-yl)methyl)-6-(5-(difluoro-methyl)-1,3,4-oxadiazol-2-yl)-4-fluoroiso-indolin-1-one]",97

# More lines, now with the values ahead:
row,inhibition at 10 µM [%],SMILES
1,99,"N#Cc1cccc(-c2cc(F)ccc2N2Cc3ncc(-c4nnc(C(F)F)o4)cc3C2=O)c1 [Example 407, 2′-(3-(5-(difluoro-methyl)-1,3,4-oxadiazol-2-yl)-5-oxo-5,7-dihydro-6H-pyrrolo[3,4-b]pyridin-6-yl)-5′-fluoro-biphenyl-3-carbonitrile]"
2,99,"O=C1c2cc(-c3nnc(C(F)F)o3)cnc2CN1c1ccc(F)cc1-c1cnn(C(F)F)c1 [Example 408, 3-(5-(difluoro-methyl)-1,3,4-oxadiazol-2-yl)-6-(2-(1-(difluoro-methyl)-1H-pyrazol-4-yl)-4-fluorophenyl)-6,7-dihydro-5H-pyrrolo[3,4-b] pyridin-5-one]"
3,99,"O=C1c2cc(-c3nnc(C(F)F)o3)cnc2CN1c1ccc(F)cc1-c1cccc(F)c1 [Example 409, 6-(3′,5-difluoro-biphenyl-2-yl)-3-(5-(difluoro-methyl)-1,3,4-oxadiazol-2-yl)-6,7-dihydro-5H-pyrrolo [3,4-b]pyridin-5-one]"
4,101,"O=C1c2cc(-c3nnc(C(F)F)o3)cnc2CN1c1ccc(F)cc1-c1cccc(Cl)c1 [Example 410, 6-(3′-chloro-5-fluoro-biphenyl-2-yl)-3-(5-(difluoro-methyl)-1,3,4-oxadiazol-2-yl)-6,7-dihydro-5H-pyrrolo [3,4-b]pyridin-5-one]"
5,100,"Cn1cc(-c2cc(F)ccc2N2Cc3ncc(-c4nnc(C(F)F)o4)cc3C2=O)cn1 [Example 411, 3-(5-(difluoro-methyl)-1,3,4-oxadiazol-2-yl)-6-(4-fluoro-2-(1-methyl-1H-pyrazol-4-yl)phenyl)-6,7-dihydro-5H-pyrrolo[3,4-b] pyridin-5-one]"
6,100,"Cn1nc(C(F)(F)F)cc1-c1cc(F)ccc1N1Cc2ncc(-c3nnc(C(F)F)o3)cc2C1=O [Example 412, 3-(5-(difluoro-methyl)-1,3,4-oxadiazol-2-yl)-6-(4-fluoro-2-(1-methyl-3-(trifluoro-methyl)-1H-pyrazol-5-yl)phenyl)-6,7-dihydro-5H-pyrrolo[3,4-b] pyridin-5-one]"
7,101,"O=C1c2cc(-c3nnc(C(F)F)o3)cnc2CN1c1ccccc1-c1cnn(C(F)F)c1 [Example 424, 3-(5-(difluoro-methyl)-1,3,4-oxadiazol-2-yl)-6-(2-(1-(difluoro-methyl)-1H-pyrazol-4-yl)phenyl)-6,7-dihydro-5H-pyrrolo[3,4-b] pyridin-5-one]"
8,99,"O=C1c2cc(-c3nnc(C(F)F)o3)cnc2CN1Cc1cncc(C(F)(F)F)c1 [Example 425, 3-(5-(difluoro-methyl)-1,3,4-oxadiazol-2-yl)-6-((5-(trifluoro-methyl)pyridin-3-yl)methyl)-6,7-dihydro-5H-pyrrolo [3,4-b] pyridin-5-one]"
9,99,"Cn1nc(C(F)(F)F)cc1-c1c(Cl)cccc1N1Cc2ccc(-c3nnc(C(F)F)o3)cc2C1=O [Example 426, 2-(3-chloro-2-(1-methyl-3-(trifluoro-methyl)-1H-pyrazol-5-yl)phenyl)-6-(5-(difluoro-methyl)-1,3,4-oxadiazol-2-yl) isoindolin-1-one]"

# Same assay, conditions: read-out: HDAC6 inhibitory rate (%) (10 μM)
row,SMILES,inhibition at 10 µM [%]
1,"O=C1c2cc(-c3nnc(C(F)F)o3)ccc2CN1[C@@H]1CCOC[C@@H]1NCC(F)(F)C(F)(F)C(F)(F)F [Example 417, 6-(5-(difluoro-methyl)-1,3,4-oxadiazol-2-yl)-2-((3R,4R)-3-((2,2,3,3,4,4,4-heptafluoro-butyl)amino)tetrahydro-2H-pyran-4-yl) isoindolin-1-one]",101
